The values that follow come from patent publication US20250282764A1, “IMIDAZOLE HETEROCYCLE BASED COMPOUNDS AND METHODS OF TREATING CANCER” (King Abdulaziz University, priority 2024, published 2025).

The test system of data set [1] is MV4-11. Nature of the data set: Annexin V/7AAD apoptosis assay, MV4-11. Type of data set: cell-based, human. As to conditions: approximately 2×IC50, 48 h. Here is the method:
(§1) Apoptosis assay for leukemia cells was performed as follows. Cells were cultured in 6-well plates at a density of 3× 10^5 cells per well and treated with approximately 2×IC50 values of compound (Id) for 48 h. The experiments were performed in duplicates. To measure apoptosis, Annexin V APC and 7AAD staining (BD Biosciences, San Jose, CA, USA) was performed according to the manufacturer's recommendations, and 10,000 events were acquired using a FACSCanto flow cytometer (BD Biosciences, San Jose, CA, USA).

Data set [2] has as its system DLD1. The experiment in a line: Annexin V apoptosis assay (flow cytometry), DLD1. Type of data set: cell-based, human. The settings on record: IC50 and 2×IC50, 48 h, vs basal conditions; dose dependent. As to the method:
(§2) Apoptosis assay for colorectal carcinoma cell lines model was performed as follows. Cells were cultured in T25 culture flasks at a density of 3×10^5 cells for DLD-1, 4×10^5 cells for HCT116, and 5×10^5 cells for HT29 cells and treated with IC50 and 2×IC50 of compound (Id) for 48 h. The experiments were performed in triplicates. To measure apoptosis, an Annexin V APC staining assay (BD Biosciences, San Jose, CA, USA) was performed according to the manufacturer's recommendations, and 10,000 events were acquired using a FACSAria III flow cytometer (BD Biosciences, San Jose, CA, USA).
For orientation: In flow cytometry, cells or beads pass a laser one at a time.

Data set [3] concerns the target T1, CYP3A4 (Homo sapiens, UniProt P08684).
T1 construct: purchased Fisher Scientific, Waltham, MA; host or cells: insect cells (supersomes)
Nature of the data set: CYP450 3A4 inhibition. The class given is in vitro ADME. As to conditions: recombinant CYP3A4 expressed in insect supersomes, probe testosterone, expressed enzyme, testosterone substrate. Here is the method:
(§3) The compound (Id) was assessed for its ability to inhibit the three major human CYP450 enzymes, 3A4, 2D6 and 2C9. Assays were run in triplicate. Expressed enzymes in insect supersomes (Fisher Scientific, Waltham, MA) were used to minimize non-specific binding and membrane partitioning issues. The 3A4 assay uses testosterone as a substrate and analysis was performed by LC/MS/MS on a Waters Xevo TQ instrument as described above using positive electrospray ionization. Assay acceptance criteria was 20% for all standards and 25% for the LLOQ. The 2D6 and 2C9 assays use fluorescent substrates (3-[2-(N,N-diethylamino)ethyl]-7-methoxy-4-methylcoumarin for 2D6; 7-methoxy-4-(trifluoromethyl) coumarin for 2C9) and were analyzed on an Envision plate reader. GraphPad® Prism v 5.04 was used for nonlinear fitting of data to generate IC50 values.

Data set [4] deals with HT29. The experiment in a line: Annexin V apoptosis assay (flow cytometry), HT29. The settings on record: IC50 and 2×IC50, 48 h, vs basal conditions; dose dependent. Type of data set: cell-based, human. As to the method: as §2
Data set [5] deals with NB4. The experiment in a line: Annexin V/7AAD apoptosis assay, NB4. The class given is cell-based, human. As to conditions: approximately 2×IC50, 48 h. Here is the method:
as §1

Data set [6] concerns the target T2, CYP2D6 (Homo sapiens, UniProt P10635).
T2 construct: purchased Fisher Scientific, Waltham, MA; host or cells: insect cells (supersomes)
The experiment in a line: CYP450 2D6 inhibition. The class given is in vitro ADME. The settings on record: recombinant CYP2D6 expressed in insect supersomes, probe 3-[2-(N,N-diethylamino)ethyl]-7-methoxy-4-methylcoumarin, expressed enzyme, fluorescent substrate. Here is the method: as §3

The subject of data set [7] is K562. Nature of the data set: Annexin V/7AAD apoptosis assay, K562. Type of data set: cell-based, human. The settings on record: approximately 2×IC50, 48 h. As to the method: as §1
Data set [8] has as its system HCT116. Nature of the data set: Annexin V apoptosis assay (flow cytometry), HCT116. Type of data set: cell-based, human. The settings on record: IC50 and 2×IC50, 48 h, vs basal conditions; dose dependent. As to the method:
as §2

In data set [9] the test system is Kasumi-1. The experiment in a line: Annexin V/7AAD apoptosis assay, Kasumi-1. The class given is cell-based, human. As to conditions: approximately 2×IC50, 48 h. Here is the method: as §1
Data set [10] has as its system HL60. The experiment in a line: Annexin V/7AAD apoptosis assay, HL60. The class given is cell-based, human. The settings on record: approximately 2×IC50, 48 h. Here is the method: as §1
Data set [11] concerns KG1α. The experiment in a line: Annexin V/7AAD apoptosis assay, KG1α. Type of data set: cell-based, human. The settings on record: approximately 2×IC50, 48 h. As to the method:
as §1

The target in data set [12] is T3, CYP2C9 (Homo sapiens, UniProt P11712).
T3 construct: purchased Fisher Scientific, Waltham, MA; host or cells: insect cells (supersomes)
T3 sequence (P11712 whole entry): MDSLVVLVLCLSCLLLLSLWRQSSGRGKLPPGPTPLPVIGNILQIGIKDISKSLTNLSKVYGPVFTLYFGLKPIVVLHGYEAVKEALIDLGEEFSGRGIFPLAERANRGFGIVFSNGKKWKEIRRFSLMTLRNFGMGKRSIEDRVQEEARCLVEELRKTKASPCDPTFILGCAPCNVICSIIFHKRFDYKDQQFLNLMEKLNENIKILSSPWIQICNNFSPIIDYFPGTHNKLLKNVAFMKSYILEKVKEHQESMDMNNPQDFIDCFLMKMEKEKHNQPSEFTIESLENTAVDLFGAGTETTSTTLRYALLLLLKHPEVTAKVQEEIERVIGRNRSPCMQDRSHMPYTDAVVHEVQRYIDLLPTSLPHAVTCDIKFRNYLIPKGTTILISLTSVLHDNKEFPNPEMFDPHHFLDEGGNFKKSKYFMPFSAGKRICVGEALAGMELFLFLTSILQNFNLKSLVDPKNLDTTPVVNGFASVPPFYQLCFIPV
The experiment in a line: CYP450 2C9 inhibition. The class given is in vitro ADME. As to conditions: recombinant CYP2C9 expressed in insect supersomes, probe 7-methoxy-4-(trifluoromethyl) coumarin, expressed enzyme, fluorescent substrate. Here is the method: as §3

Data set [13] deals with caspase-3. As to conditions: concentration of 1 μM; previous study; cited from earlier work.
The subject of data set [14] is cell cycle. The settings on record: concentration of 1 μM; previous study; cited from earlier work.
Data set [15] relates to HCT116 CRC cells. The settings on record: previous study (Khayat et al.); cited from earlier work.
Data set [16] relates to CYP450 metabolizing enzymes (3A4, 2D6, and 2C9). The settings on record: previous study; cited from earlier work.
Data set [17] concerns PC3 prostate cancer. The settings on record: previous study (Khayat et al.); cited from earlier work.
In data set [18] the test system is MCF7 breast cancer. The settings on record: previous study (Khayat et al.); cited from earlier work.
Data set [19] has as its system NB4, HL60, and KG1a leukemia cell lines. As to conditions: previous study (Khayat et al.); range over three lines; cited from earlier work.

Entries after “also recorded” stand apart in the source; their conditions may differ.

T2 sequence (P10635 whole entry): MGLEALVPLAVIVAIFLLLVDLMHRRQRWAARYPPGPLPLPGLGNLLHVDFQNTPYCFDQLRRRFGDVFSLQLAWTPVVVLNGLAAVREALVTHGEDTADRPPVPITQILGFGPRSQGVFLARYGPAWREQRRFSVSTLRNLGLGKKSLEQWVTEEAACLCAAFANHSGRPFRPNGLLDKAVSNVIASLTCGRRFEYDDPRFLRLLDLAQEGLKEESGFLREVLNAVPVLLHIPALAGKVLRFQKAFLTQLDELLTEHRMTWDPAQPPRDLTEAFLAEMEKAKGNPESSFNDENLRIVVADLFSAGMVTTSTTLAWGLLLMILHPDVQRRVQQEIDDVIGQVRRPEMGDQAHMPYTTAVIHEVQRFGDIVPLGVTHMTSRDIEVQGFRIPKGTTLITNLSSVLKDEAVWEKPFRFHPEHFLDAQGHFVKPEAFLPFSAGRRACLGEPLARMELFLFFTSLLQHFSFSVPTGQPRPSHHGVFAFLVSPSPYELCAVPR
T1 sequence (P08684 whole entry): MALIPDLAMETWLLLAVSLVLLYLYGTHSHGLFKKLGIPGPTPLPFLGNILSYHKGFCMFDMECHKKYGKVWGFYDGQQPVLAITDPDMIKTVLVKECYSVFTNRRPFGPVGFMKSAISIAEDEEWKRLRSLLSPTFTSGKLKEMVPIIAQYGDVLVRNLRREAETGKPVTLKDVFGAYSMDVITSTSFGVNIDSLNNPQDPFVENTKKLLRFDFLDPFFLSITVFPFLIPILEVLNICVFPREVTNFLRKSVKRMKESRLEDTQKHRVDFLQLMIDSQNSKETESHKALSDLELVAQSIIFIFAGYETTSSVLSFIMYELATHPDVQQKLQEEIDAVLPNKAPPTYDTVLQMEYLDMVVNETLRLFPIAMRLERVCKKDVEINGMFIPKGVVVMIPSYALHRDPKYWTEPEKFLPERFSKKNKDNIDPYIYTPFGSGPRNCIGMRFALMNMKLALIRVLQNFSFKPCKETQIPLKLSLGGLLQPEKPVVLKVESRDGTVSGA

Regarding `CC1=N/C(=C\c2ccc(C)o2)C(=O)N1c1ccc(CC(=O)NCc2ccccc2)cc1` [Compound (Id), 2-Methyl-4-(5-methyl-2-furyl)methylene-1-[4-(benzylaminocarbonylmethyl)phenyl]-5-oxo-1H-imidazole], the “apoptosis in MV4-11 cells” value in data set [1] is “strong apoptosis”. Further, the “apoptosis in DLD1 cells” value in data set [2] is reported as “increased apoptosis”. Moreover, the IC50 in data set [3], in [6] and in data set [12] was > 10000 nM in each case. Also, in data set [4], the “apoptosis in HT29 cells” value is on record as “increased apoptosis”. For the same compound, in [5], the “apoptosis in NB4 cells” value is “strong apoptosis”. Further, the “apoptosis in K562 cells” value in data set [7] was “strong apoptosis”. The “apoptosis in HCT116 cells” value in data set [8] is “increased apoptosis”. Moreover, in data set [9], the “apoptosis in Kasumi-1 cells” value is recorded as “strong apoptosis; also recorded: very strong induction of apoptosis”. Further, in [10], the “apoptosis in HL60 cells” value is reported as “strong apoptosis”. The “apoptosis in KG1α cells” value in [11] is recorded as “strong apoptosis”.
`COc1ccc(/C=C2\N=C(C)N(c3ccc(CC(=O)NCc4ccccc4)cc3)C2=O)cc1` [KIM-161, reference compound]: the apoptosis entry in data set [13] is reported as “promoted apoptosis through activation of caspase-3”. Also, in data set [14], the “effect on cell cycle” value is “cell cycle arrest at pre-G and G2/M phases”. Further, the IC50 in data set [15] is 294 nM; in [17], 2140 nM; in [18], 1140 nM; in data set [19], 275 to 893 nM. For the same compound, the “substrate for major CYP450 metabolizing enzymes (3A4, 2D6, and 2C9)” value in [16] is “not a substrate”.

The IC50 is the concentration that gives 50% inhibition.
